Results: patent US9345258B2, “Synergistic phytochemical composition and a process for preparation thereof” (priority 2011, dated 2016)

Test system: primary OA
Experiment: Randomized, single blind, placebo-controlled trial in painful osteoarthritis
Assay type: in vivo, patients
Settings: 42 days treatment
Method: The present trial was earned out to evaluate the effectiveness of the composition of the invention in the treatment of painful OA [a randomized, single blind, placebo-controlled trial]. 120 patients (37 males and 83 females) with primary OA received either the composition of the invention (500 mg twice daily) or Glucosamine sulphate (750 mg twice daily) or placebo (500 mg twice daily) or combination of the composition of the invention and Glucosamine sulphate for 42 days. During the treatment period two follow up visits on day 21st and day 42nd, efficacy was evaluated in terms of change in the intensity/severity of symptoms (as measured by VAS, WOMAC scale) and examination by orthopaedician (as measured by CGIC).

## N[C@H]1C(O)O[C@H](CO)[C@@H](O)[C@@H]1O.O=S(=O)(O)O (stereo partly shown) [Glucosamine sulphate]
  signs and symptoms of OA: Overall improvement
